Measured values as given in patent publication US20160235069A1, “N-ACRYLIMINO HETEROCYCLIC COMPOUNDS” (BASF SE, priority 2013, published 2016).
Like-named read-outs stand apart in the source and are kept apart here.

Assays:
Format in all cases: in vivo
Myzus persicae = assay: Green peach aphid (Myzus persicae), systemic, artificial diet in 96-well plates; settings: 72 h, read-out: mortality in comparison with untreated controls
Text: General conditions: If not otherwise specified, most test solutions are to be prepared as follows: The active compound is to be dissolved at the desired concentration in a mixture of 1:1 (vol:vol) distilled water:acteon. Further, the test solutions are to be prepared at the day of use (and, if not otherwise specified, in general at concentrations wt/vol).
For evaluating control of green peach aphid (Myzus persicae) through systemic means, the test unit consists of 96-well-microtiter plates containing liquid artificial diet under an artificial membrane.
The compounds are formulated using a solution containing 75% v/v water and 25% v/v DMSO. Different concentrations of formulated compounds are pipetted into the aphid diet, using a custom built pipetter, at two replications.
After application, 5-8 adult aphids are placed on the artificial membrane inside the microtiter plate wells. The aphids are then allowed to suck on the treated aphid diet and incubated at about 23+1° C. and about 50+5% relative humidity for 3 days. Aphid mortality and fecundity is then visually assessed.

Megoura viciae = assay: Vetch aphid (Megoura viciae), contact or systemic, broad bean leaf disks; settings: foliar, 120 h, read-out: mortality in comparison with untreated controls
Description: For evaluating control of vetch aphid (Megoura viciae) through contact or systemic means the test unit consisted of 24-well-microtiter plates containing broad bean leaf disks.
The compounds were formulated using a solution containing 75% v/v water and 25% v/v DMSO. Different concentrations of formulated compounds were sprayed onto the leaf disks at 2.5 μl, using a custom built micro atomizer, at two replications.
After application, the leaf disks were air-dried and 5-8 adult aphids were placed on the leaf disks inside the microtiter plate wells. The aphids were then allowed to suck on the treated leaf disks and were incubated at about 23±1° C. and about 50±5% relative humidity for 5 days. Aphid mortality and fecundity was then visually assessed.

Aphis gossypii = assay: Cotton aphid (Aphis gossypii), sprayed potted plants; settings: 72 h, read-out: mortality in comparison with untreated controls
Aphis craccivora = assay: Cowpea aphid (Aphis craccivora), sprayed potted cowpea plants; settings: 72 h, read-out: mortality in comparison with untreated controls
Description: The active compound is dissolved at the desired concentration in a mixture of 1:1 (vol:vol) distilled water: acetone. Surfactant (Alkamuls® EL 620) is added at a rate of 0.1% (vol/vol). The test solution is prepared at the day of use.
Potted cowpea plants are colonized with approximately 50-100 aphids of various stages by manually transferring a leaf tissue cut from infested plant 24 hours before application. Plants are sprayed after the pest population has been recorded. Treated plants are maintained on light carts at about 28° C. Percent mortality is assessed after 72 hours.

Dichromothrips corbetti = assay: Orchid thrips (Dichromothrips corbetti), floral-immersion technique; settings: 72 h, read-out: mortality in comparison with untreated controls
Description: Dichromothrips corbetti adults used for bioassay are obtained from a colony maintained continuously under laboratory conditions. For testing purposes, the test compound is diluted in a 1:1 mixture of acetone:water (vol:vol), plus 0.01% vol/vol Alkamuls® EL 620 surfactant.
Thrips potency of each compound is evaluated by using a floral-immersion technique. Plastic petri dishes are used as test arenas. All petals of individual, intact orchid flowers are dipped into treatment solution and allowed to dry. Treated flowers are placed into individual petri dishes along with about 20 adult thrips. The petri dishes are then covered with lids. All test arenas are held under continuous light and a temperature of about 28° C. for duration of the assay. After 3 days, the numbers of live thrips are counted on each flower, and along inner walls of each petri dish. The percent mortality is recorded 72 hours after treatment.

Nephotettix virescens = assay: Rice green leafhopper (Nephotettix virescens), sprayed rice seedlings; settings: read-out: mortality in comparison with untreated controls
Description: Rice seedlings are cleaned and washed 24 hours before spraying. The active compounds are formulated in 50:50 acetone:water (vol:vol), and 0.1% vol/vol surfactant (EL 620) is added. Potted rice seedlings are sprayed with 5 ml test solution, air dried, placed in cages and inoculated with 10 adults. Treated rice plants are kept at about 28-29° C. and relative humidity of about 50-60%. Percent mortality is recorded after 72 hours.

Nilaparvata lugens = assay: Rice brown plant hopper (Nilaparvata lugens), sprayed rice seedlings; settings: 72 h, read-out: mortality in comparison with untreated controls
Description: Rice seedlings are cleaned and washed 24 hours before spraying. The active compounds is formulated in 50:50 acetone:water (vol:vol) and 0.1% vol/vol surfactant (EL 620) was added. Potted rice seedlings are sprayed with 5 ml test solution, air dried, placed in cages and inoculated with 10 adults. Treated rice plants are kept at about 28-29° C. and relative humidity of about 50-60%. Percent mortality is recorded after 72 hours.

Plutella xylostella = assay: Diamond back moth (Plutella xylostella), dipped cabbage leaves; settings: 3rd instar larvae on dipped cabbage leaves, 72 hours after treatment, read-out: mortality in comparison with untreated controls
Description: The active compound is dissolved at the desired concentration in a mixture of 1:1 (vol:vol) distilled water: acetone. Surfactant (Kinetic HV) is added at a rate of 0.01% (vol/vol). The test solution is prepared at the day of use.
Leaves of cabbage were dipped in test solution and air-dried. Treated leaves were placed in petri dishes lined with moist filter paper and inoculated with ten 3rd instar larvae. Mortality was recorded 72 hours after treatment. Feeding damages were also recorded using a scale of 0-100%.

Anthonomus grandis = assay: Boll weevil (Anthonomus grandis), insect diet with eggs in 96-well plates; settings: 120 h, read-out: mortality in comparison with untreated controls
Description: For evaluating control of boll weevil (Anthonomus grandis) the test unit consisted of 96-well-microtiter plates containing an insect diet and 5-10 A. grandis eggs.
The compounds were formulated using a solution containing 75% v/v water and 25% v/v DMSO. Different concentrations of formulated compounds were sprayed onto the insect diet at 5 μl, using a custom built micro atomizer, at two replications.
After application, microtiter plates were incubated at about 25±1° C. and about 75±5% relative humidity for 5 days. Egg and larval mortality was then visually assessed.

C=C(F)C(=O)/N=c1\ccccn1Cc1ccc(Cl)nc1 [Compound E1.3]
≥ 75%: mortality at 2500 ppm (Myzus persicae) | mortality at 2500 ppm (Megoura viciae) | mortality at 500 ppm (Aphis gossypii) | mortality at 500 ppm (Aphis craccivora) | mortality at 500 ppm (Dichromothrips corbetti) | mortality at 500 ppm (Nephotettix virescens; 72 h) | mortality at 500 ppm (Nilaparvata lugens)

C=C(F)C(=O)/N=c1\ccccn1Cc1cnn(C)c1 [Compound E1.16]
≥ 75%: mortality at 2500 ppm (Myzus persicae; 2500 ppm, adult aphids on treated diet, 3 days) | mortality at 2500 ppm (Megoura viciae; 2500 ppm, adult aphids on sprayed leaf disks, 5 days) | mortality at 500 ppm (Nephotettix virescens; 500 ppm, adults on sprayed rice seedlings, after 72 hours) | mortality at 500 ppm (Plutella xylostella)

CC(C)(C)C/C=C(\C#N)C(=O)/N=c1\ccccn1Cc1ccc(Cl)nc1 [Compound E1.28]
≥ 75%: mortality at 2500 ppm (Myzus persicae) | mortality at 2500 ppm (Megoura viciae) | mortality at 500 ppm (Aphis craccivora) | mortality at 2500 ppm (Anthonomus grandis)
